Assay results published in ChEMBL document CHEMBL1201862, “PubChem BioAssay data set” (2004).
Calls of active or inactive are those of the source.

Legend:
Estrogen receptor = target: T1, Estrogen receptor (Homo sapiens, UniProt P03372); assay: ERα–SRC-3 coactivator interaction inhibitors, confirmation, orthogonal assay, biochemical, ELISA, streptavidin-HRP readout (AID 1079)
T1 sequence (P03372 whole entry): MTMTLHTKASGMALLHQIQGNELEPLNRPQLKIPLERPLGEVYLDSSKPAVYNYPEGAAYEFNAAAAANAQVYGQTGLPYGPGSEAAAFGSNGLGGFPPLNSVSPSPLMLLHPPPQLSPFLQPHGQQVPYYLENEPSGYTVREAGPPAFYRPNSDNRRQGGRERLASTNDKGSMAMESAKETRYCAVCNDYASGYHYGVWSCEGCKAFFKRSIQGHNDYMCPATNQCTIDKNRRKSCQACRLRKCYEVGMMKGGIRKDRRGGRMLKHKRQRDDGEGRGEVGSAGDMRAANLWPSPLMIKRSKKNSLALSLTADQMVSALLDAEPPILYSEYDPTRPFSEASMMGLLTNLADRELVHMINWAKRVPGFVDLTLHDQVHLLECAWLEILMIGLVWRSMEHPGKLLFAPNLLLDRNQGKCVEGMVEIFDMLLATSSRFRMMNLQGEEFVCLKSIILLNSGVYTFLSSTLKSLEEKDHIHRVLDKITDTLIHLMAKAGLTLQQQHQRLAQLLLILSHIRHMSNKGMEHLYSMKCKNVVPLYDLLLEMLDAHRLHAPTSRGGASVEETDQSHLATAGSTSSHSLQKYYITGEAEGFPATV

[1] = inhibitors of intracellular T. cruzi replication, confirmation, NIH3T3 host cells, beta-gal luminescence (AID 2044); type: functional, cell-based;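 note: intracellular parasites grown in NIH/3T3 mouse fibroblasts as host cells; luminescent beta-galactosidase reporter signal from transgenic T. cruzi replicating inside host cells; inhibitors lower the luminescence signal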
HeLa = assay: Cytotoxicity counterscreen assay for transcriptional activators of heat shock protein 70 (Hsp70). [Related pubchem assays: 1203, 1252 ]; type: functional; details: Homo sapiens
[2] = Shn3 3'UTR reporter inhibitors, dose response, cell-based, Clone20 osteoblasts, firefly luciferase, cherry-picked (AID 624132); type: functional;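 note: firefly luciferase luminescence from reporter carrying the Shn3 3'UTR in osteoblasts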
HEK293 [3] = assay: cells; details: Homo sapiens
[4] = control 3'UTR Renilla luciferase suppression, dose response, counter-screen for Shn3 inhibitor project, cell-based, Clone20-Shn3RL, cherry-picked (AID 624133); type: functional
HEK293 [5] = assay: cells; details: Homo sapiens; remark: listed apart in the source
[6] = target: T2, Microphthalmia-associated transcription factor (Homo sapiens, UniProt O75030); assay: TRPM1 promoter luciferase signal decrease, dose response, MITF inhibitor project, cell-based, SK-MEL-5, cherry-picked, set 3 (AID 493073); type: functional
T2 sequence (O75030 whole entry): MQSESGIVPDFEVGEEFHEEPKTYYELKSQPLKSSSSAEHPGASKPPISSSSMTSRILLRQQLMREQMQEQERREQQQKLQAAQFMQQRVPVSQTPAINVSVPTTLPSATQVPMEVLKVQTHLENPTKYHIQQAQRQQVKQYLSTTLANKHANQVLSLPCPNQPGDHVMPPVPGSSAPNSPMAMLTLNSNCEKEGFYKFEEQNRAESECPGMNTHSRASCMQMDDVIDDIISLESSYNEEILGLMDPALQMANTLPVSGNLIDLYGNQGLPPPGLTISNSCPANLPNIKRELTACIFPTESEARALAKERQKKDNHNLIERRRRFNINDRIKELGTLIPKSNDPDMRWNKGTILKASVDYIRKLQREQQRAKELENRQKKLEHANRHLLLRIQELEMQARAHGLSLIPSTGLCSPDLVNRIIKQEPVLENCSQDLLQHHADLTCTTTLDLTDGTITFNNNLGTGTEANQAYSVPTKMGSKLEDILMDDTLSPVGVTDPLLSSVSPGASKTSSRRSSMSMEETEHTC

[7] = cytotoxicity toward NIH3T3 fibroblasts, dose response, counter-screen, cell-based, ATP luminescence, mouse fibroblasts (AID 2010); type: functional;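 note: cells exposed to compound for about 90 hours before reading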
[8] = HepG2 cell cytotoxicity, dose response, cytotoxicity control for Shn3 inhibitor project, CellTiter-Glo, cherry-picked (AID 624134); type: functional, cell-based
[9] = Luminescence Cell-Based Dose Response HTS to Identify Activators of Luciferase Translation or Activity in H4 […] Cells. [Related pubchem assays: 1829 (Project Summary), 1814 (Primary HTS)]; type: functional
Galanin receptor type 3 = Galanin receptor type 3 (Homo sapiens, UniProt O60755); assay: Fluorescence-based cell-based primary high throughput dose response assay to identify antagonists of the Galanin Receptor 3 (GalR3).; type: functional
[10] = Luminescence Cell-Based Dose Confirmation HTS to Identify Activators of 5'UTR Stem-Loop Driven Alpha-Synuclein mRNA Translation in H4 Neuroglioblastoma Cells. [Related pubchem assays: 1829 (Project Summary), 1814 (Primary HTS)]; type: functional
HEK293 [11] = assay: Fluorescence-based counterscreen for potentiators or agonists of NPY-Y2: cell-based high-throughput dose response assay to identify inhibitors of cyclic nucleotide gated ion channel (CNGC) activity. In this assay, the parental HEK293 cell line transfected with a cyclic-nucleotide gated ion channel (CNGC)-based cAMP sensor is used to measure inhibition of isoproterenol-induced CNGC activity by test compound.; type: functional; details: Homo sapiens
[12] = target: Luciferin 4-monooxygenase (Photinus pyralis, UniProt P08659); assay: firefly luciferase enzyme inhibitors, dose response, biochemical, luminescence (AID 1891)
H4 = assay: Luminescence Cell-Based Dose Response HTS to Identify Activators of 5'UTR Stem-Loop Driven Prion Protein mRNA Translation in H4 Neuroglioblastoma Cells. [Related pubchem assays: 1829 (Project Summary), 1814 (Primary HTS)]; type: functional; details: Homo sapiens
[13] = target: Neuropeptide Y receptor type 2 (Homo sapiens, UniProt P49146); assay: Fluorescence-based cell-based high-throughput dose response assay for agonists of NPY-Y2. [Related pubchem assays: 1703 (Screening assay (CNGC inhibitors).), 1359 (Screening assay (NPY-Y2 potentiators or agonists).), 1304 (Screening assay (NPY-Y1 potentiators or agonists).), 1710 (Screening assay (NPY-Y2 agonists).), 1791 (Summary AID.)]; type: functional
[14] = Luminescence Cell-Based Dose Confirmation HTS to Identify Inhibitors of Platelet Dense Granule Release. [Related pubchem assays: 1663 (Primary HTS), 1678 (Summary of Project)]; type: functional
cells = type: functional, cell-based; details: HEK-CNG
[15] = target: Neuropeptide Y receptor type 1 (Homo sapiens, UniProt P25929); assay: Fluorescence-based counterscreen for agonists of NPY-Y2: cell-based high-throughput dose response assay for agonists of NPY-Y1.; type: functional
[16] = Luminescence Cell-Based Dose Response to Identify Activators of Luciferase Translation or Activity in H4-C Neuroglioblastoma Cells. [Related pubchem assays: 1829 (Project Summary), 1814 (Primary HTS)]; type: functional
Streptokinase A = target: T3, Streptokinase A (Streptococcus pyogenes serotype M1, UniProt P10520); assay: S. pyogenes streptokinase expression inhibitors, potency, dose response, plasminogen activation absorbance, OD405 (AID 1914); type: functional, Streptococcus pyogenes M1 GAS;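 note: secreted streptokinase activity via plasminogen activation per viability signal from cell pellet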
T3 sequence (P10520 whole entry): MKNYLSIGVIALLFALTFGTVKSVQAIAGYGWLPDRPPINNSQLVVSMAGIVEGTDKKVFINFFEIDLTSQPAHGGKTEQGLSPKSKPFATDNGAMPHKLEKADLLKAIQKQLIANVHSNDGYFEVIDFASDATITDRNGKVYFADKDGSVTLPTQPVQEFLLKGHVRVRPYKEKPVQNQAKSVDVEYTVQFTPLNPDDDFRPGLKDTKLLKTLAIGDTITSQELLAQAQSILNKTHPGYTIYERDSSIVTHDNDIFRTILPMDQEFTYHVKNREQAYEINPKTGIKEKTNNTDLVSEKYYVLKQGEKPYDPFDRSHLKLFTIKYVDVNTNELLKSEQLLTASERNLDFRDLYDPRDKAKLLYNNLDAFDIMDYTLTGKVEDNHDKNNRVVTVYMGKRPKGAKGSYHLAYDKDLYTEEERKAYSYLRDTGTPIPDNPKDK

NS3 = NS3 (Hepatitis C virus, UniProt A3EZJ3); assay: PubChem AID 2173; parameters: species or system Hepacivirus hominis
INS1 = assay: beta cell apoptosis inhibitors, cytokine rescue, dose response, luminescence, retest (AID 449756); type: functional, cell-based; details: Rattus norvegicus, INS1;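 note: cell death triggered by IL-1 beta plus TNF-alpha plus IFN-gamma mixture; protective hits raise ATP signal compared with cytokine alone wells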
Streptococcus = assay: Group A Streptococcus viability loss, dose response, counter-screen for streptokinase expression inhibitor project, luminescence, BacTiterGlo (AID 1915); type: functional, organism-based;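 note: potency for reduction of bacterial viability or growth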
[17] = Luminescence Cell-Based Dose Confirmation to Identify Activators of 5'UTR Stem-Loop Driven Alpha-Synuclein mRNA Translation in H4 Neuroglioblastoma Cells. [Related pubchem assays: 1829 (Project Summary), 1814 (Primary HTS)]; type: functional
[18] = test system: Streptococcus sp. 'group A'; assay: growth inhibition of control SK(-) GAS strain, dose response, counter-screen for streptokinase expression inhibitor project, luminescence, kanamycin, BacTiterGlo, confirmation (AID 1900); type: functional, organism-based
[19] = Luminescence Cell-Based Dose Response to Identify Activators of 5'UTR Stem-Loop Driven Prion Protein mRNA Translation in H4-C Neuroglioblastoma Cells. [Related pubchem assays: 1829 (Project Summary), 1814 (Primary HTS)]; type: functional
[20] = target: Induced myeloid leukemia cell differentiation protein Mcl-1 (Homo sapiens, UniProt Q07820); type: functional
[21] = target: T4, Small ubiquitin-related modifier 1 (Homo sapiens, UniProt P63165); assay: inhibitors of SUMO1 peptide binding, dose response, biochemical, fluorescence polarization, uHTS hits (AID 624382); type: functional; details: read-out: IC50_Mean
Genome polyprotein = Genome polyprotein (Hepatitis C virus, UniProt Q2Q167); assay: HCV core protein dimerization inhibitors, dose response, biochemical, TR-FRET (AID 2159); parameters: species or system Hepacivirus hominis;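 note: blocks dimerization of HCV core protein measured by TR-FRET between tagged core106 pairs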
[22] = target: T4, Small ubiquitin-related modifier 1; assay: inhibitors of SUMO1 partner interactions, dose response, biochemical, FRET (AID 624383); type: functional; details: read-out: IC50_Mean
Insulin-degrading enzyme = Insulin-degrading enzyme (Homo sapiens, UniProt P14735); assay: Dose Response: Fluorescence polarization-based cell-based high throughput dose response assay for inhibitors of insulin-degrading enzyme (IDE). [Related pubchem assays: 434962 (Primary screen (IDE inhibitors in singlicate)), 449730 (Counterscreen (Cytotoxicity in triplicate)), 435028 (Confirmation (IDE inhibitors in triplicate)), 434984 (Summary …; type: functional
[23] = Counterscreen for IDE inhibitors: Luminescence-based cell-based high throughput dose response assay to identify compounds that are cytotoxic to HEK cells. [Related pubchem assays: 434962 (Primary screen (IDE inhibitors in singlicate)), 449730 (Counterscreen (Cytotoxicity in triplicate)), 435028 (Confirmation (IDE inhibitors in triplicate)) …; type: functional; details: HEK293
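Throughout, for CC50: cells exposed to compound for 16 hours before readout.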

T4 sequence (P63165 whole entry): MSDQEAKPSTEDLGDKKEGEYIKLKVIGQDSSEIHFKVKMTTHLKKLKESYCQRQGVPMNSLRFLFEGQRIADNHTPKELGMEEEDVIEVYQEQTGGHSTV
NS3, sequence (A3EZJ3 whole entry): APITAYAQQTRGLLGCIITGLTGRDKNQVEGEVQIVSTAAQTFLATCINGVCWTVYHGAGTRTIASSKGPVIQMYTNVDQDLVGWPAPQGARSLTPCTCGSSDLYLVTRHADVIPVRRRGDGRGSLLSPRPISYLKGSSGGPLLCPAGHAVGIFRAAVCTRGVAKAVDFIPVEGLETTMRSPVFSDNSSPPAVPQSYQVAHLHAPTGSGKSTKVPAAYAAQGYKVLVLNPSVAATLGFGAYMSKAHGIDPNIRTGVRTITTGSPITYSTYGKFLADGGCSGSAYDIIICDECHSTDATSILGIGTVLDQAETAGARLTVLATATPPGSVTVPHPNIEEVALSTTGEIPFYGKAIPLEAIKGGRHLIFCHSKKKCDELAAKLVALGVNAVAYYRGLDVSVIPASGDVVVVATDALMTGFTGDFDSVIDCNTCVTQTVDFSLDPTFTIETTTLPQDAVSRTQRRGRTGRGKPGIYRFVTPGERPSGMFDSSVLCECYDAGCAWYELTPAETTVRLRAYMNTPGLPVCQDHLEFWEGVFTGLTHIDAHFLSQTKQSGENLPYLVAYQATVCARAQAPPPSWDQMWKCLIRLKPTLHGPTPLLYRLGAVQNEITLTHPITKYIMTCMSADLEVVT
Insulin-degrading enzyme, sequence (P14735 whole entry): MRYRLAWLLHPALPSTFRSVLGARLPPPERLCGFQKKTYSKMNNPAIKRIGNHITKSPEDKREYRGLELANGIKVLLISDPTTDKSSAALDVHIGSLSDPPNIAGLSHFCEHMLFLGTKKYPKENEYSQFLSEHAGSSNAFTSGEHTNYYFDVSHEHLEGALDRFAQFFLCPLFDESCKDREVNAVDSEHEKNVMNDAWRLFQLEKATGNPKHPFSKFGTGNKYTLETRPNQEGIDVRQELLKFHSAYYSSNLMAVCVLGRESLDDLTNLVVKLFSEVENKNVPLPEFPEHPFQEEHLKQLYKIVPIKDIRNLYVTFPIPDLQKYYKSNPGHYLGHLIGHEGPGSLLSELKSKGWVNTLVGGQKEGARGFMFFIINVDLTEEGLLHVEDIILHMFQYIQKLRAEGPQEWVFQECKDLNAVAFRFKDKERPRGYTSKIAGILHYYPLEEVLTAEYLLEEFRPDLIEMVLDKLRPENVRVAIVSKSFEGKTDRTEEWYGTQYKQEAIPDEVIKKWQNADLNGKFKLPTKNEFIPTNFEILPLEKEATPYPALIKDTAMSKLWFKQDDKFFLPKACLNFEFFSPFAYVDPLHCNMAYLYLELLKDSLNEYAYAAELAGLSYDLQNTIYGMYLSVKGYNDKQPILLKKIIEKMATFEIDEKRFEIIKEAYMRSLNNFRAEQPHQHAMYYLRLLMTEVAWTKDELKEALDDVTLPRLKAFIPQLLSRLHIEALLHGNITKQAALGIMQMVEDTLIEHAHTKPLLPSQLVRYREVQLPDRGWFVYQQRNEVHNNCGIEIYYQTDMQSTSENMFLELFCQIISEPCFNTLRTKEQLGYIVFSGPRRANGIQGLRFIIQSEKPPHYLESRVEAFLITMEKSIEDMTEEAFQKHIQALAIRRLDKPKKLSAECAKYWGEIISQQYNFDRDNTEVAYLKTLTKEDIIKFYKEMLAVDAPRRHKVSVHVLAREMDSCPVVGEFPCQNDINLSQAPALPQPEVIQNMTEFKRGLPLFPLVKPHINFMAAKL
Induced myeloid leukemia cell differentiation protein Mcl-1, sequence (Q07820 whole entry): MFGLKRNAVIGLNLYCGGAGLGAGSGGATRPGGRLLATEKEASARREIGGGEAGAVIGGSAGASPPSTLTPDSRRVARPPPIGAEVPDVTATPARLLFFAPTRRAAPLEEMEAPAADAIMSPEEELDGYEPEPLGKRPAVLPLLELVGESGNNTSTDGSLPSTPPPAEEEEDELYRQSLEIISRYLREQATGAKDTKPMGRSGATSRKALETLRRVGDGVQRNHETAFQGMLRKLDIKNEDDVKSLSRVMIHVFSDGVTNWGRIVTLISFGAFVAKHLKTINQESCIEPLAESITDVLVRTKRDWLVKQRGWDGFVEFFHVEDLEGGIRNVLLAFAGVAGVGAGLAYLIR
Luciferin 4-monooxygenase, sequence (P08659 whole entry): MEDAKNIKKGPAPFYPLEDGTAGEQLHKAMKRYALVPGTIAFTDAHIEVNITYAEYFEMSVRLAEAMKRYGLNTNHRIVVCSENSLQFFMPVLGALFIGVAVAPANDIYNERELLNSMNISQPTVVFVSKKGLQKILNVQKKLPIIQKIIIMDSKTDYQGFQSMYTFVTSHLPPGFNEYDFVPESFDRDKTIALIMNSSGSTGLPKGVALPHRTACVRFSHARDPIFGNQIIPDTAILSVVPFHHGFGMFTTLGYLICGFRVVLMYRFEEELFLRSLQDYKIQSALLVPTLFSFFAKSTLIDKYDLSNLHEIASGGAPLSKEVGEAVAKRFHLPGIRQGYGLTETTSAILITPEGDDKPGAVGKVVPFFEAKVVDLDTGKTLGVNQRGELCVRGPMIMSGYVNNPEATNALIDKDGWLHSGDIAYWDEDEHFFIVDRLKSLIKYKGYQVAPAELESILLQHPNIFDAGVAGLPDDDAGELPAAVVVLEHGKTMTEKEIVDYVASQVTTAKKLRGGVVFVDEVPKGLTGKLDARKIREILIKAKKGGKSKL
Neuropeptide Y receptor type 2, sequence (P49146 whole entry): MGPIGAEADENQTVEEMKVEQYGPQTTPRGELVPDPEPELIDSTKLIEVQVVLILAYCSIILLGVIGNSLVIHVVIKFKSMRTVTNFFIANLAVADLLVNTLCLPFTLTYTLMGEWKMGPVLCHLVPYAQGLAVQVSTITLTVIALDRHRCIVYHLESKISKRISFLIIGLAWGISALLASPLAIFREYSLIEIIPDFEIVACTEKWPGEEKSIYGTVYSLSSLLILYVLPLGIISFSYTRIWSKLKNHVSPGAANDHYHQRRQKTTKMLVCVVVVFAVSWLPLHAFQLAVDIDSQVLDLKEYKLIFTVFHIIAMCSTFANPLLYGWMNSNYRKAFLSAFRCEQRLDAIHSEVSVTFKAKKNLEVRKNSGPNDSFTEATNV
Galanin receptor type 3, sequence (O60755 whole entry): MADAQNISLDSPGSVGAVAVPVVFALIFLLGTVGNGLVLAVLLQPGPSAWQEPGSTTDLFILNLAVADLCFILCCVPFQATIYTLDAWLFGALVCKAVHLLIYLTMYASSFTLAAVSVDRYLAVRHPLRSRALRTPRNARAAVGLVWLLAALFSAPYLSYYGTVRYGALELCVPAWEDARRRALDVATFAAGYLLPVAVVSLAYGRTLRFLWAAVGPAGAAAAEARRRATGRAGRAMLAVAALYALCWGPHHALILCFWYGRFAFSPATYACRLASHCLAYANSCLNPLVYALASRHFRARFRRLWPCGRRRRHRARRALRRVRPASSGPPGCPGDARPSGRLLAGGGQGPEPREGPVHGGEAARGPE
Neuropeptide Y receptor type 1, sequence (P25929 whole entry): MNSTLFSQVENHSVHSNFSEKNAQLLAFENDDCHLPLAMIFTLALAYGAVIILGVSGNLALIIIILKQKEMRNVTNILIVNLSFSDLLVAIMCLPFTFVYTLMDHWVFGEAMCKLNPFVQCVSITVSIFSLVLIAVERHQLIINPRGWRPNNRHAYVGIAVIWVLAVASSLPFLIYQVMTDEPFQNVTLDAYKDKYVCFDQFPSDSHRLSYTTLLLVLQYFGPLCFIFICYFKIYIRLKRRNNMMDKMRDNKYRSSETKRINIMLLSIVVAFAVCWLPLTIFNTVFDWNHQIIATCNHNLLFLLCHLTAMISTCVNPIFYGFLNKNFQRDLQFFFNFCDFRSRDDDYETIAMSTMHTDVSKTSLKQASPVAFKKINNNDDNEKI
Genome polyprotein, sequence (Q2Q167 whole entry): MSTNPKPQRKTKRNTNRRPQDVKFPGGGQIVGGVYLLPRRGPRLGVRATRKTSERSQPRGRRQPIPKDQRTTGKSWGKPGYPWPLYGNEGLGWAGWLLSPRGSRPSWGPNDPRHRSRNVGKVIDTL

## O=C(CCCCCn1c(=S)[nH]c2ccccc2c1=O)N1CCN(c2ccncc2)CC1
Estrogen receptor
  IC50: 0.03 µM (not active)

## CCCC(=O)N1CCN(c2ccc(NC(=O)c3ccc([N+](=O)[O-])o3)cc2Cl)CC1
[1]
  EC50: 2.36 µM (active)
HeLa
  CC50: 4.19 µM (active)
[2]
  AC50: 0.7 µM (active)
HEK293 [3]
  EC50: > 59.6 µM (inactive)
[4]
  AC50: 8.17 µM (active)
HEK293 [5]
  EC50: > 59.6 µM (inactive)
[6]
  AC50: 7.65 µM (active)
[7]
  EC50: 2.96 µM (active)
[8]
  AC50: 36.6 µM (active)

## Nc1cc(-c2ccc(Br)cc2)nn1Cc1ccccc1
[9]
  EC50: 18 µM (active)
Galanin receptor type 3
  IC50: 3.55 µM (active)
[10]
  EC50: 7.99 µM (active)
HEK293 [11]
  EC50: 9.3 µM (active)
[12]
  EC50: > 112 µM (not active)
H4
  EC50: 13.1 µM (active)
[13]
  EC50: 13.1 µM (not active)
[14]
  EC50: > 112 µM (not active)
cells
  EC50: > 29.9 µM (inactive)
[15]
  EC50: 11.6 µM (not active)

## NC(=S)N/N=C/c1ccc(C23CC4CC(CC(C4)C2)C3)cc1
[9]
  EC50: < 0.1 µM (active)
[1]
  EC50: 0.387 µM (active)
[16]
  EC50: 0.415 µM (active)
Streptokinase A
  EC50: 13.4 µM (active)
NS3
  IC50: 5.41 µM (active)
[10]
  EC50: < 0.1 µM (active)
INS1
  AC50: 5.3 µM (active)
Streptococcus
  EC50: > 50 µM (not active)
[17]
  EC50: 0.324 µM (active)
H4
  EC50: 96.8 µM (active)
[7]
  EC50: 7.3 µM (active)
[18]
  EC50: 2.4 µM (active)
[19]
  EC50: 1.31 µM (active)

## COc1cccc(/C=N/Nc2[nH]cnc3c4cc(C)ccc4nc2-3)c1OC
[20]
  IC50: 3.73 µM (active)
[21]
  IC50: > 66.6 µM (inactive)
Genome polyprotein
  IC50: > 49.8 µM (not active)
[22]
  IC50: 2.38 µM (active)
Insulin-degrading enzyme
  IC50: 0.571 µM (active)
[23]
  IC50: 24.9 µM (not active)
